Measured values from ChEMBL document CHEMBL1132432, “Urea-PETT compounds as a new class of HIV-1 reverse transcriptase inhibitors. 3. Synthesis and further structure-activity relationship studies of PETT analogues” (J Med Chem, 1999).
pEC50, pIC50: −log10 of the molar value.

Legend:
MT4 = assay: Inhibitory activity against HIV-1 Wild Type in MT-4 cell culture (human T-cell line with 50% human AB serum); assay type: functional; conditions: read-out: ED50 (the source's name)
[1] = biological target: T1, Human immunodeficiency virus type 1 reverse transcriptase (Human immunodeficiency virus 1, UniProt Q72547); assay: HIV-1 reverse transcriptase inhibitory activity against Wild Type Reverse transcriptase using (poly)rC600*(oligo)dGT as template primer.
[2] = biological target: T1, Human immunodeficiency virus type 1 reverse transcriptase; assay: HIV-1 reverse transcriptase inhibitory activity against Asn103 mutant using (poly)rC600*(oligo)dGT as template primer.
[3] = biological target: T1, Human immunodeficiency virus type 1 reverse transcriptase; assay: HIV-1 reverse transcriptase inhibitory activity against Cys181 mutant using (poly)rC600*(oligo)dGT as template primer.
[4] = biological target: T1, Human immunodeficiency virus type 1 reverse transcriptase; assay: HIV-1 reverse transcriptase inhibitory activity against Ile 100 mutant using (poly)rC600*(oligo)dGT as template primer.
[5] = biological target: Human immunodeficiency virus type 1 reverse transcriptase (Human immunodeficiency virus 1) (UniProt Q72547); conditions: MT4
Description: Inhibitory activity against HIV-1 Asn 103 mutant in MT-4 cells.

[6] = biological target: Human immunodeficiency virus type 1 reverse transcriptase (Human immunodeficiency virus 1) (UniProt Q72547); conditions: MT4; remark: listed apart in the source
Description: Inhibitory activity against HIV-1 Cys 181 mutant in MT-4 cells.

[7] = biological target: Human immunodeficiency virus type 1 reverse transcriptase (Human immunodeficiency virus 1) (UniProt Q72547); conditions: MT4; remark: listed apart in the source
Description: Inhibitory activity against HIV-1 Ile 100 mutant in MT-4 cells.

[8] = biological target: Human immunodeficiency virus type 1 reverse transcriptase (Human immunodeficiency virus 1) (UniProt Q72547); conditions: MT4; remark: listed apart in the source
Description: Inhibition of wild type HIV-1 in MT-4 cell culture (human T cell line)

SMILES | pEC50 (MT4; Homo sapiens, MT4) | pIC50 [1] | pIC50 [2] | pIC50 [3] | pIC50 [4] | ED50 [5] [nM] | ED50 [6] [nM] | ED50 [7] [nM] | ED50 [8] [nM] | pEC50 (MT4)
O=C1Nc2ccc(Cl)cc2[C@@](C#CC2CC2)(C(F)(F)F)O1 [EFAVIRENZ] | 7.30 |  |  |  |  |  |  |  |  | 
CCOc1ccc(F)c(C2CC2NC(=O)Nc2ccc(Cl)cn2)c1F (stereo not drawn) |  | 8.80 | 6.33 | 7.85 | 7.09 | 544 | 163 | 816 | 31 | 
CCC(=O)c1ccc(F)c(C2CC2NC(=O)Nc2ccc(Br)cn2)c1O (stereo in doubt; 17) [listing 1 of 2 here] |  |  |  |  |  | 80 | 69 | 100 | 8 | 
COc1ccc2c(c1)N(C(=O)OC(C)C)C(CSC)C(S)=N2 (stereo not drawn) | 6.49 | 8.10 | 7.25 | 8.05 | 8.05 | 500 | 73 | 72 | 9 | 
CN(C)c1ccc(F)c(CCNC(=O)Nc2ccc(Br)cn2)c1F |  |  | < 5.60 | 5.82 | < 5.60 | > 20000 | > 20000 | > 20000 | 500 | 
CCOc1ccc(F)c(C2CC2NC(=O)Nc2cc(Cl)cnn2)c1Cl (stereo not drawn) |  | 7.80 | < 5.59 | 6.59 | 6.85 | > 5000 | 2300 | 4400 | 78 | 
CCC(=O)c1ccc(F)c(C2CC2NC(=O)Nc2ccc(Cl)cn2)c1O (stereo in doubt; 20) [listing 1 of 2 here] |  | 8.57 | 7.11 | 8.40 | 7.85 |  |  |  |  | 7.10
CC(=O)c1ccc(F)c(C2CC2NC(=O)Nc2ccc(Br)cn2)c1O (stereo not drawn) |  | 8.46 | 7.15 | 8.10 | 7.74 | 561 | 113 | 50 | 21 | 
COc1ccc(OC)c(CCNC(=O)Nc2ccc(Cl)cn2)c1F |  |  | 6.65 | 6.85 | 6.85 | 1130 | > 5000 | 3800 | 28 | 
COc1c(C(C)=O)ccc(F)c1CCNC(=O)Nc1ccc(Cl)cn1 |  | 6.65 | < 5.57 | 4.90 | 4.58 | > 5000 | > 5000 | > 5000 | 819 | 
CCOc1ccc(Cl)c(C2CC2NC(=O)Nc2ccc(C#N)cn2)c1F (stereo not drawn) |  | 8.57 | 6.72 | 7.70 | 7.57 | 400 | 200 | 53 | 4 | 
CCC(=O)c1ccc(F)c(C2CC2NC(=O)Nc2ccc(Cl)cn2)c1O (stereo in doubt; 13) [listing 1 of 2 here] |  |  |  |  |  | 350 | 340 | 220 | 27 | 
CCOc1ccc(Cl)c(C2CC2NC(=O)Nc2cc(Cl)cnn2)c1F (stereo not drawn) |  | 8.28 | < 5.59 | 6.00 | 6.00 | > 5000 | > 5000 | > 5000 | 18 | 
CCC(=O)c1ccc(F)c(C2CC2NC(=O)Nc2ccc(Cl)cn2)c1O (stereo in doubt; 19) [listing 1 of 2 here] | 7.29 | 8.49 | 7.09 | 7.72 | 6.94 |  |  |  |  | 
O=C(Nc1ccc(Cl)cn1)NC1CC1c1c(F)ccc(O)c1Cl (stereo not drawn) |  | 6.87 | < 5.57 | 5.37 | 5.39 | > 5000 | > 5000 | > 5000 | 110 | 
CCC(=O)c1ccc(F)c(C2CC2NC(=O)Nc2ccc(Br)cn2)c1O (stereo in doubt; 18) [listing 1 of 2 here] |  |  |  |  |  | 358 | 95 | 53 | 12 | 
CCC(=O)c1ccc(F)c(C2CC2NC(=O)Nc2ccc(Cl)cn2)c1O (stereo in doubt; 19) [listing 2 of 2 here] |  |  |  |  |  | 200 | 100 | 100 | 9 | 
CCC(=O)c1ccc(F)c(C2CC2NC(=O)Nc2ccc(C#N)cn2)c1O (stereo not drawn) |  | 8.17 | 7.01 | 7.80 | 7.49 | 137 | 46 | 69 | 3 | 
CCC(=O)c1ccc(F)c(C2CC2NC(=O)Nc2ccc(Cl)cn2)c1O (stereo in doubt; 13) [listing 2 of 2 here] |  | 8.05 | 7.24 | 7.29 | 7.12 |  |  |  |  | 
CCOc1ccc(F)c(CCNC(=O)Nc2ccc(Br)cn2)c1Cl |  |  | < 5.62 | 6.62 | 5.77 | > 5000 | > 5000 | > 10000 | 70 | 
CCC(=O)c1ccc(F)c(C2CC2NC(=O)Nc2ccc(Br)cn2)c1O (stereo in doubt; 18) [listing 2 of 2 here] |  | 8.32 | 7.39 | 8.00 | 7.85 |  |  |  |  | 7.25
CCOc1ccc(F)c(C2CC2NC(=O)Nc2ccc(C#N)cn2)c1Cl (stereo not drawn) |  | 8.37 | 6.74 | 6.89 | 6.70 | > 5000 | 270 | 234 | 8 | 
CCC(=O)c1ccc(F)c(C2CC2NC(=O)Nc2ccc(Cl)cn2)c1O (stereo in doubt; 20) [listing 2 of 2 here] |  |  |  |  |  | 470 | 100 | 75 | 13 | 
COc1ccc(C(C)=O)c(F)c1CCNC(=O)Nc1ccc(Cl)cn1 |  | 6.96 | < 5.57 | 5.00 | 4.95 | 3280 | > 20000 | > 20000 | 273 | 
CCOc1ccc(Cl)c(C2CC2NC(=O)Nc2ccc(Cl)cn2)c1F (stereo not drawn) |  | 8.89 | 6.63 | 7.68 | 7.28 | 780 | 104 | 139 | 9 | 
CC(C)Nc1cccnc1N1CCN(C(=O)c2cc3cc(NS(C)(=O)=O)ccc3[nH]2)CC1 [DELAVIRDINE] | 6.49 |  |  |  |  |  |  |  |  | 
CCC(=O)c1ccc(F)c(C2CC2NC(=O)Nc2ccc(Br)cn2)c1O (stereo in doubt; 17) [listing 2 of 2 here] | 7.24 | 8.42 | 7.08 | 7.80 | 6.77 |  |  |  |  | 
CC(=O)c1ccc(F)c(C2CC2NC(=O)Nc2ccc(C#N)cn2)c1O (stereo not drawn) |  | 8.28 | 7.01 | 7.80 | 7.89 | 104 | 230 | 40 | 8 | 
Cc1ccnc2c1NC(=O)c1cccnc1N2C1CC1 [NEVIRAPINE] | < 5.30 |  |  |  |  |  |  |  |  | 
